Laboratory results as given in patent US20050009924A1 (priority 2003, published 2005).

Columns and labels:
[1] = system: transcriptional activity of hTERT; assay: SEAP reporter assay of hTERT expression, PhTERT-SEAP (hTERT-BJ1); type: cell-based, human; settings: Homo sapiens, hTERT-BJ1, read-out: Relative SEAP activity (%)
In short: (§1)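 Cells seeded, grown 24 h at 37° C, refed, then exposed to varying drug amounts for another 24 h. Collected media heated 65° C for 10 min to kill heat-labile phosphatases, mixed with equal SEAP buffer (2 M diethanolamine, 1 mM MgCl2, 20 mM […]) plus 12 mM final p-nitrophenyl phosphate; rate of A405 increase measured.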

human hepatoma G2 cells = assay: Cytotoxicity assay (XTT colorimetric), Hep G2; type: cell-based; settings: Homo sapiens, HepG2; 48 h of drug exposure
rat glioma C6 cells = assay: Cytotoxicity assay (XTT colorimetric), C6 cells; type: cell-based; settings: Rattus norvegicus, C6; 48 h of drug exposure
[2] = MTT relative viability, PhTERT-SEAP (hTERT-BJ1) cells; settings: human; for viability at 48 h, 1.9 µM / viability at 48 h, 19 µM / viability at 48 h, 190 µM: hTERT-BJ1 cells, stable PhTERT-SEAP reporter clone
Protocol: The tetrazolium reagent (MTT; 3-(4,5-di-methylthiazol)-2,5-diphenyl tetrazolium bromide, USB) was designed to yield a colored formazan upon metabolic reduction by viable cells. Approximately […] cells were plated onto each well of a 96-well plate and incubated in 5% CO2 at 37° C. for 24 h. To assess the in vitro cytotoxicity, each compound was dissolved in DMSO and prepared immediately before the experiments and was diluted into the complete medium before addition to cell cultures. Test compounds were then added to the culture medium for designated various concentrations. After 48 h, an amount of 25 μL of MTT was added to each well, and the samples were incubated at 37° C. for 4 h. A 100 μL solution of lysis buffer containing 20% SDS and 50% N,N-dimethylformamide was added to each well and incubated at 37° C. for another 16 h. The absorbency at 550 nm was measured using an ELISA reader.
Non small lung cancer cells H1299 (telomerase positive) were grown in RPMI 1640 media supplemented with 10% fetal bovine serum, 100 units/mL penicillin and 100 mg/mL streptomycin in a humidified atmosphere with 5% CO2 at 37° C. The hTERT immortalized hTERT-BJ1 (BD Biosciences Clontech)^39 were grown in DMEM media supplemented with 10% fetal calf serum, 100 units/mL penicillin and 100 mg/mL streptomycin, 1 mM sodium pyruvate, and 4 mM I-arginine in a humidified atmosphere with 5% CO2 at 37° C. Culture media were changed every 3 days. […] The stable clones derived from H1299 or hTERT-BJ1 were cultured using conditions that are similar to their parental cells.

[3] = MTT relative viability, PhTERT-SEAP (H1299) cells; settings: human
[4] = system: iron-induced lipid peroxidation in rat brain homogenates; assay: Iron-induced lipid peroxidation in rat brain homogenates; settings: 10 mM; for Inhibition of LP(10 mM): mean percent inhibition (Table 3); for LP (%) (10 mM): relative percentage of inhibition (Table 1)
[5] = system: transcriptional activity of hTERT; assay: SEAP reporter assay of hTERT expression, PhTERT-SEAP (H1299); type: cell-based, human; settings: Homo sapiens, NCI-H1299, H1299, read-out: Relative SEAP activity (%)
In short: as §1

Compound | activity at 1.9 µM [1] [%] | activity at 19 µM [1] [%] | activity at 190 µM [1] [%] | IC50 (human hepatoma G2 cells) [µM] | IC50 (rat glioma C6 cells) [µM] | viability at 48 h, 1.9 µM [2] [%] | viability at 48 h, 19 µM [2] [%] | viability at 48 h, 190 µM [2] [%] | viability at 48 h, 1.9 µM [3] [%] | viability at 48 h, 19 µM [3] [%] | viability at 48 h, 190 µM [3] [%] | Inhibition of LP(10 mM) [4] [%] | activity at 1.9 µM [5] [%] | activity at 19 µM [5] [%] | activity at 190 µM [5] [%] | LP (%) (10 mM) [4] | other results
O=C(Oc1cccc2c1C(=O)c1cccc(OC(=O)c3ccccc3Cl)c1C2=O)c1ccccc1Cl | 120 ± 10.5 | 116 ± 3.7 | 97 ± 10.8 | 0.04 ± 0.01 | 40.7 ± 4.7 | 107 ± 5.5 | 92 ± 4.3 | 40 ± 4 | 74 ± 5.3 | 34 ± 3.4 | 30 ± 1.4 | 5 ± 0.5 | 93 ± 4.4 | 101 ± 4.9 | 97 ± 5.3 |  | 
O=C(Oc1cccc2c1C(=O)c1cccc(OC(=O)c3cccc(Cl)c3)c1C2=O)c1cccc(Cl)c1 | 154 ± 23 | 152 ± 15.8 | 91 ± 25.2 | 15.1 ± 1.9 | 25.1 ± 2.8 | 101 ± 2.3 | 80 ± 6.7 | 44 ± 6 | 98 ± 3.9 | 88 ± 7.2 | 46 ± 3.5 | 1 ± 0.1 | 83 ± 5.7 | 92 ± 8.1 | 81 ± 2.5 |  | 
O=C(Oc1cccc2c1C(=O)c1cccc(OC(=O)c3ccc(Cl)cc3)c1C2=O)c1ccc(Cl)cc1 | 136 ± 5.7 | 123 ± 6.2 | 107 ± 6 | 48.1 ± 4.5 | 38.6 ± 3.5 | 111 ± 6.5 | 89 ± 14.3 | 48 ± 9 | 91 ± 10 | 57 ± 1.8 | 31 ± 1 | 2 ± 0.2 | 106 ± 4.5 | 106 ± 4.9 | 97 ± 4.9 |  | 
O=C1c2cccc(SCC(O)CO)c2C(=O)c2cccc(SCC(O)CO)c21 (stereo not drawn) |  |  |  | 34.3 ± 1.8 | 38.5 ± 1.5 |  |  |  |  |  |  |  |  |  |  | 83 ± 1.1 | activity at 2.4 µM ([1]; 2.4 μM): 144 ± 16.9%; activity at 24 µM ([1]; 24 μM): 136 ± 10%; activity at 240 µM ([1]; 240 μM): 142 ± 9.1%; viability at 48 h, 2.4 µM [2]: 98 ± 10.7%; viability at 48 h, 24 µM [2]: 86 ± 5.5%; viability at 48 h, 240 µM [2]: 79 ± 8.2%; viability at 48 h, 2.4 µM [3]: 102 ± 6.2%; viability at 48 h, 24 µM [3]: 103 ± 4.2%; viability at 48 h, 240 µM [3]: 83 ± 18.2%; activity at 2.4 µM ([5]; 2.4 μM): 105 ± 21.6%; activity at 24 µM ([5]; 24 μM): 90 ± 5.7%; activity at 240 µM ([5]; 240 μM): 81 ± 6.1%
O=C1c2cccc(SCCO)c2C(=O)c2cccc(SCCO)c21 [IIb, 1,5-Bis(hydroxyethylthio)-anthraquinone] |  |  |  | 36.4 ± 1.5 | 21.5 ± 0.8 |  |  |  |  |  |  |  |  |  |  | 16 ± 2.2 | activity at 2.8 µM ([1]; 2.8 μM): 104 ± 15.7%; activity at 28 µM ([1]; 28 μM): 98 ± 10.9%; activity at 280 µM ([1]; 280 μM): 71 ± 5%; viability at 48 h, 2.8 µM [2]: 94 ± 9.3%; viability at 48 h, 28 µM [2]: 49 ± 2.9%; viability at 48 h, 280 µM [2]: 23 ± 2.9%; viability at 48 h, 2.8 µM [3]: 54 ± 4%; viability at 48 h, 28 µM [3]: 29 ± 7%; viability at 48 h, 280 µM [3]: 36 ± 7.2%; activity at 2.8 µM ([5]; 2.8 μM): 97 ± 15.7%; activity at 28 µM ([5]; 28 μM): 76 ± 12.4%; activity at 280 µM ([5]; 280 μM): 45 ± 2.7%
